Experimental data as given in PubChem BioAssay (NCI).
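These data come from cells grown in 96-well plates and exposed to compound for 48 hours at five concentrations. At the TGI there is no net growth.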

Assays:
Assay in all cases: inhibition of tumour cell growth, NCI panel, 48 h
786-0 renal = test system: 786-0 renal
A498 renal = test system: A498 renal
A549 NSCLC = test system: A549 NSCLC
ACHN renal = test system: ACHN renal
CAKI-1 renal = test system: CAKI-1 renal
CCRF-CEM leukemia = test system: CCRF-CEM leukemia
COLO 205 colon = test system: COLO 205 colon
DU-145 prostate = test system: DU-145 prostate
EKVX NSCLC = test system: EKVX NSCLC
HCC-2998 colon = test system: HCC-2998 colon
HCT-116 colon = test system: HCT-116 colon
HCT-15 colon = test system: HCT-15 colon
HOP-62 NSCLC = test system: HOP-62 NSCLC
HOP-92 NSCLC = test system: HOP-92 NSCLC
HS 578T breast = test system: HS 578T breast
HT29 colon = test system: HT29 colon
IGROV1 ovarian = test system: IGROV1 ovarian
K-562 leukemia = test system: K-562 leukemia
KM12 colon = test system: KM12 colon
LOX IMVI melanoma = test system: LOX IMVI melanoma
M14 melanoma = test system: M14 melanoma
MALME-3M melanoma = test system: MALME-3M melanoma
MCF7 breast = test system: MCF7 breast
MDA-MB-231 breast = test system: MDA-MB-231 breast
MDA-MB-435 = test system: MDA-MB-435
MDA-N = test system: MDA-N
MOLT-4 leukemia = test system: MOLT-4 leukemia
NCI-H226 lung = test system: NCI-H226 lung
NCI-H23 lung = test system: NCI-H23 lung
NCI-H460 lung = test system: NCI-H460 lung
NCI-H522 lung = test system: NCI-H522 lung
NCI/ADR-RES ovarian = test system: NCI/ADR-RES ovarian
OVCAR-3 ovarian = test system: OVCAR-3 ovarian
OVCAR-4 ovarian = test system: OVCAR-4 ovarian
OVCAR-5 ovarian = test system: OVCAR-5 ovarian
OVCAR-8 ovarian = test system: OVCAR-8 ovarian
PC-3 prostate = test system: PC-3 prostate
RPMI-8226 leukemia = test system: RPMI-8226 leukemia
RXF 393 renal = test system: RXF 393 renal
SF-268 CNS = test system: SF-268 CNS
SF-295 CNS = test system: SF-295 CNS
SF-539 CNS = test system: SF-539 CNS
SK-MEL-2 melanoma = test system: SK-MEL-2 melanoma
SK-MEL-28 melanoma = test system: SK-MEL-28 melanoma
SK-MEL-5 melanoma = test system: SK-MEL-5 melanoma
SK-OV-3 ovarian = test system: SK-OV-3 ovarian
SN12C renal = test system: SN12C renal
SNB-19 CNS = test system: SNB-19 CNS
SNB-75 CNS = test system: SNB-75 CNS
SW-620 colon = test system: SW-620 colon
T-47D breast = test system: T-47D breast
TK-10 renal = test system: TK-10 renal
U251 CNS = test system: U251 CNS
UACC-257 melanoma = test system: UACC-257 melanoma
UACC-62 melanoma = test system: UACC-62 melanoma
UO-31 renal = test system: UO-31 renal
BT-549 breast = test system: BT-549 breast
SR leukemia = test system: SR leukemia

Measured: TGI

Clc1ccc(C2ON=C(c3ccccc3)N2C23CC4CC(CC(C4)C2)C3)c(Cl)c1 (stereo unspecified)
not listed: BT-549 breast | SR leukemia
> 10 µM: all other assays above

CC(C)(C)OC(=O)NCCCCCCC(=O)Cc1ccccc1
not listed: HS 578T breast | SF-539 CNS | UACC-62 melanoma
> 100 µM: all other assays above
